{
  "source": "patent US9718823B2",
  "about": "“2, 6-Di-nitrogen-containing substituted purine derivative, and preparation method, pharmaceutical composition and use thereof” (Zhejiang Medicine Co., Ltd. Xinchang Pharmaceutical Factory, priority 2013, dated 2017)",
  "key": {"[1]": {"tested_on": "BT474 human breast cancer cell strain", "assay": "Antitumor cell proliferation in vitro, CCK-8 detection kit, BT474", "format": "cell-based", "details": "Homo sapiens, BT-474, 72 h, BT-474 cells, 1st and 2nd test where printed", "protocol": "(§1) The half inhibitory concentration IC50 of proliferation of three kinds of tumor cell strain (U87MG, PC-3, BT474) for 12 candidate compounds of the present invention is detected by CCK-8 detection kits.\nBT474 human breast cancer cell strain (cell bank of Chinese Academy of Sciences) Reagents and materials:\n(§2) The studied compounds are dissolved by DMSO to make the final concentration 10 mM.\n(§3) • a) Collecting the cells in logarithmic phase, counting, and resuspending the cells with complete medium. • b) Adjusting the concentration of cells to a suitable concentration, inoculating in 96 well plates, each well is inoculated to 100 μl cell suspension.\n(§4) c) incubating cells for 24 hours in a 5% CO2 incubator at temperature of 37° C., under the condition of 100% relative humidity.\n(§5) a) The cells in logarithmic phase is collected, counted, resuspended with complete medium. The concentration of cells is adjusted to a suitable concentration (determined in accordance with the optimizable test results of cell density), and the cells is inoculated in 96 well plates, wherein each well is inoculated 100 μl cell suspension, Cells are incubated for 24 hours in 5% CO2 incubator at temperature of 37° C. under the condition of 100% relative humidity.\n(§6) b) The test compounds are diluted to 500 μM with culture medium, then diluted in series eight times. […] as 25 μl/well. The final concentrations of the compounds are diluted from 100 μM to 0 μM, with 4 times dilution, and there are a total of 10 concentration points.\n(§7) c) Cells are incubated for 72 hours in 5% CO2 incubator at temperature of 37° C. under the condition of 100% relative humidity.\n(§8) d) The culture medium is aspirated and discarded, and complete medium containing 10% CCK-8 is incubated in a incubator at 37° C. for 2˜4 hours.\n(§9) e) After shocking gently, the absorbance of the culture medium is measured at 450 nm wavelength on SpectraMax M5 Microplate Reader, with the absorbance at 650 nm as reference, to calculate the inhibition rate."}, "[2]": {"target": "T1, PDGFR β enzyme (Homo sapiens, UniProt P09619)", "T1 construct": "purchased Invitrogen P3082", "T1 sequence (P09619 33-1106)": "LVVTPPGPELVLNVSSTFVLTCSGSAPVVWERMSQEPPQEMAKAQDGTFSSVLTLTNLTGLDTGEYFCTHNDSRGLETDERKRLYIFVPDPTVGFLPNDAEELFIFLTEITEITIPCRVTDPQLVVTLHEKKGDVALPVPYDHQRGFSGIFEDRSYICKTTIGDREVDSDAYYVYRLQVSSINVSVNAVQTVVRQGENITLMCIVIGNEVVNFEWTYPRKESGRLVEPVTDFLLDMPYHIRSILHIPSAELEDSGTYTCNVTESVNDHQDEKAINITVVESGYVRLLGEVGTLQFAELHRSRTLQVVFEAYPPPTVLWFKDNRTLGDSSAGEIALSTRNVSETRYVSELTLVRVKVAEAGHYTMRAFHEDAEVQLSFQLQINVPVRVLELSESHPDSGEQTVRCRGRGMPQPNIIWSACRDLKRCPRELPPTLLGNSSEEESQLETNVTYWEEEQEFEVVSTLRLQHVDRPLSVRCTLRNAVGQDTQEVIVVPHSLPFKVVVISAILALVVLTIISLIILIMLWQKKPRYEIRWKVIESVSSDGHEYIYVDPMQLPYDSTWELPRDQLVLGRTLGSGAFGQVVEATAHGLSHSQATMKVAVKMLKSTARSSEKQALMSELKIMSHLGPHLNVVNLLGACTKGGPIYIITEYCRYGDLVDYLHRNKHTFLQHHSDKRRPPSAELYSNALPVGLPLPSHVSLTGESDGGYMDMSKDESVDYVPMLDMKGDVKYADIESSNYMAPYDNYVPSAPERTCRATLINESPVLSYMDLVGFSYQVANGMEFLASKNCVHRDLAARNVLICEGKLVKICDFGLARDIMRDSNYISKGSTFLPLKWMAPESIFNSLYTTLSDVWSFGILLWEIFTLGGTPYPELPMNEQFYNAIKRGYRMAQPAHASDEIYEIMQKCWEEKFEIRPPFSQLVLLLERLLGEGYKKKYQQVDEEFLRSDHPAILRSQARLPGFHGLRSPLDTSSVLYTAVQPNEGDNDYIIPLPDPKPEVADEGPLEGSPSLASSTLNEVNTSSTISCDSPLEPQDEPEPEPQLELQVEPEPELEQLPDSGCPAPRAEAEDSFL", "assay": "Inhibitory activity to PDGFR β enzyme, HTRF kinEASE TK kit", "format": "biochemical", "outline": "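Recombinant human PDGFRβ phosphorylating TK-substrate in kinase buffer containing MgCl2, MnCl2, DTT and SEB, with ATP. Phosphorylation detected by HTRF using TK-Ab-Cryptate and Sa-XL665.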"}, "[3]": {"tested_on": "U87MG human glioblastoma Multiforme cell strain", "assay": "Antitumor cell proliferation in vitro, CCK-8 detection kit, U87MG", "format": "cell-based", "details": "U-87 MG, 72 h, U-87MG cells, 1st and 2nd test where printed", "protocol": "as §1\nU87MG human glioblastoma Multiforme cell strain (cell bank of Chinese Academy of Sciences)\nas §2, §3, §4, §5, §6, §7, §8, §9"}, "[4]": {"tested_on": "PC-3 human prostate cancer cell strain", "assay": "Antitumor cell proliferation in vitro, CCK-8 detection kit, PC-3", "format": "cell-based", "details": "Homo sapiens, PC-3, 72 h, PC-3 cells, 1st and 2nd test where printed", "protocol": "as §1\nPC-3 human prostate cancer cell strain (cell bank of Chinese Academy of Sciences)\nas §2, §3, §4, §5, §6, §7, §8, §9"}},
  "note": "Structures can show the parent of a compound that is named as a salt.",
  "data": [
    {"smiles": "c1ccc(-c2ccnc3ccc(Nc4nc(NC5CC5)c5nc[nH]c5n4)cc23)cc1", "note": "[MED1007-91, N6-cyclopropyl-N2-(4-phenylquinoline-6-yl)-9H-purine-2,6-diammonium salt dihydrate di-methanesulfonate]", "values": [
      {"measurement": "IC50", "setting": "[1]", "result": 0.523, "unit": "µM"},
      {"measurement": "Inhibition rate % (PDGFR β)", "setting": "[2]; 1 μM, dihydrate di-methanesulfonate", "result": "−10.96", "unit": "%"},
      {"measurement": "inhibition at 10 µM", "setting": "[2]; 10 μM, read-out: Inhibition rate % (PDGFR β)", "result": 13.8, "unit": "%"},
      {"measurement": "IC50", "setting": "[3]", "result": 8.15, "unit": "µM"},
      {"measurement": "IC50", "setting": "[4]", "result": 0.654, "unit": "µM"}
    ]},
    {"smiles": "COC[C@H]1OC(=O)c2coc3c2[C@@]1(C)C1=C(C3=O)[C@@H]2CCC(=O)[C@@]2(C)C[C@H]1OC(C)=O", "note": "[Wortmannin, reference compound]", "values": [
      {"measurement": "IC50", "setting": "[1]", "result": 5.21, "unit": "µM"},
      {"measurement": "IC50", "setting": "[4]", "result": 21.6, "unit": "µM"}
    ]}
  ]
}
